“Also recorded” adds a separate entry of the source. Where two headings read alike, the source gives them in different places. Blank lines part the entries; values can stand above or below the molecule they belong to.
Legend:
[1] = mice, cited from earlier work
Human MRP4 = molecular target: T1, Human MRP4 (Homo sapiens, UniProt O15439); experiment: Vesicular uptake assay, MRP4 membrane vesicles
T1 sequence (O15439 1-1325): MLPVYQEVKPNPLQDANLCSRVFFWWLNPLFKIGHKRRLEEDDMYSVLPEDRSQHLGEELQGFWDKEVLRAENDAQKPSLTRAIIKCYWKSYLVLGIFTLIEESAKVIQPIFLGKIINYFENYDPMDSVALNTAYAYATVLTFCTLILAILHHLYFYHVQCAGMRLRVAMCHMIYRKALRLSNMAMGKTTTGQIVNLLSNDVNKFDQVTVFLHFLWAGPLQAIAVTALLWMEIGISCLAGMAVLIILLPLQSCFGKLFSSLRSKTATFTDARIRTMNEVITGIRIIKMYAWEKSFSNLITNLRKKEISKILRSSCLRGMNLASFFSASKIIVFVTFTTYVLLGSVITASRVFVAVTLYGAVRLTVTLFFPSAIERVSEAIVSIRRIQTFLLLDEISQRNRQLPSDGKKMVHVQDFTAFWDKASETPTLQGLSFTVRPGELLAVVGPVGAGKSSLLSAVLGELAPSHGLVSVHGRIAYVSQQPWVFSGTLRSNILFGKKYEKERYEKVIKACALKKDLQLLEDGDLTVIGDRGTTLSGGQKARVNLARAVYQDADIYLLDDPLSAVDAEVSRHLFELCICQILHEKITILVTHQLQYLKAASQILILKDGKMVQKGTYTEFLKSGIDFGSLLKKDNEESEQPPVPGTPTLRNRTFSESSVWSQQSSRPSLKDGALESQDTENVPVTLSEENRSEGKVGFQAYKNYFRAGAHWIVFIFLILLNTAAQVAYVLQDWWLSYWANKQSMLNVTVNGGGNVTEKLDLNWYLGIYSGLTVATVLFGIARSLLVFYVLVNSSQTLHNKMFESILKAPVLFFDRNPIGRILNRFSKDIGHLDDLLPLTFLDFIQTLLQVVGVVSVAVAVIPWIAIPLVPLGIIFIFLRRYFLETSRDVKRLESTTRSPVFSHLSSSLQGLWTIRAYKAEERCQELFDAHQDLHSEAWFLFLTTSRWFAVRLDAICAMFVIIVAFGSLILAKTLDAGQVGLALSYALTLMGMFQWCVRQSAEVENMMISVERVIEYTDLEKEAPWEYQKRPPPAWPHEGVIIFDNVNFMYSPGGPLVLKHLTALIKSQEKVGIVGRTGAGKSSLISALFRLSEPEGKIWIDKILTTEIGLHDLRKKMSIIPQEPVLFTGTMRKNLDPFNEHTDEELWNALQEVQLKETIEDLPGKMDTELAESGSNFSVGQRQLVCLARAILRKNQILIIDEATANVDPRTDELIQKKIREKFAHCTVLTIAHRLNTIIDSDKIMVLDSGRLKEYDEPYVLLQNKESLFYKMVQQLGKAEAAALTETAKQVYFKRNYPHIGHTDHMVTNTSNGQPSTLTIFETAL

[2] = given into the carotid artery, rats; ref Neuwelt et al., 2001; cited from earlier work
[3] = ref Borgstrom et al., 1986; cited from earlier work
human OAT1 = molecular target: T2, human OAT1 (Homo sapiens, UniProt Q4U2R8)
T2 sequence (Q4U2R8 1-563): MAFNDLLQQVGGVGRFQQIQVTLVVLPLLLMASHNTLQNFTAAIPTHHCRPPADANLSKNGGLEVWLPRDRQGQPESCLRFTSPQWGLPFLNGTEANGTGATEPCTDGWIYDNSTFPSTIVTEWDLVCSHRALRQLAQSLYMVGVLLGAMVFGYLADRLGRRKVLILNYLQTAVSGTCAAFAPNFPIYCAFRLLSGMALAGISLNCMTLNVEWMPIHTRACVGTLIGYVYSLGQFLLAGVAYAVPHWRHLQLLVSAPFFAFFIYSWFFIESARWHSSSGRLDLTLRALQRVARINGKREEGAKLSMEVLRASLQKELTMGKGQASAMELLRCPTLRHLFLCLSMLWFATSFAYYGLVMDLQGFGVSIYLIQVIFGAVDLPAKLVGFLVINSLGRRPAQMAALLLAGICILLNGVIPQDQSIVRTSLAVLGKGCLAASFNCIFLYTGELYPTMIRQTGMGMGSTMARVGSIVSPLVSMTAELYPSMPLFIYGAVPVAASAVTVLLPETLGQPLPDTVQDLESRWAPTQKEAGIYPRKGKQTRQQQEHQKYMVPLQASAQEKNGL

[4] = ref Giustarini et al., 2012; cited from earlier work
Human MRP1 = Human MRP1 (Homo sapiens, UniProt P33527); experiment: Vesicular uptake assay, MRP1 membrane vesicles
Sequence of Human MRP1 (P33527 whole entry): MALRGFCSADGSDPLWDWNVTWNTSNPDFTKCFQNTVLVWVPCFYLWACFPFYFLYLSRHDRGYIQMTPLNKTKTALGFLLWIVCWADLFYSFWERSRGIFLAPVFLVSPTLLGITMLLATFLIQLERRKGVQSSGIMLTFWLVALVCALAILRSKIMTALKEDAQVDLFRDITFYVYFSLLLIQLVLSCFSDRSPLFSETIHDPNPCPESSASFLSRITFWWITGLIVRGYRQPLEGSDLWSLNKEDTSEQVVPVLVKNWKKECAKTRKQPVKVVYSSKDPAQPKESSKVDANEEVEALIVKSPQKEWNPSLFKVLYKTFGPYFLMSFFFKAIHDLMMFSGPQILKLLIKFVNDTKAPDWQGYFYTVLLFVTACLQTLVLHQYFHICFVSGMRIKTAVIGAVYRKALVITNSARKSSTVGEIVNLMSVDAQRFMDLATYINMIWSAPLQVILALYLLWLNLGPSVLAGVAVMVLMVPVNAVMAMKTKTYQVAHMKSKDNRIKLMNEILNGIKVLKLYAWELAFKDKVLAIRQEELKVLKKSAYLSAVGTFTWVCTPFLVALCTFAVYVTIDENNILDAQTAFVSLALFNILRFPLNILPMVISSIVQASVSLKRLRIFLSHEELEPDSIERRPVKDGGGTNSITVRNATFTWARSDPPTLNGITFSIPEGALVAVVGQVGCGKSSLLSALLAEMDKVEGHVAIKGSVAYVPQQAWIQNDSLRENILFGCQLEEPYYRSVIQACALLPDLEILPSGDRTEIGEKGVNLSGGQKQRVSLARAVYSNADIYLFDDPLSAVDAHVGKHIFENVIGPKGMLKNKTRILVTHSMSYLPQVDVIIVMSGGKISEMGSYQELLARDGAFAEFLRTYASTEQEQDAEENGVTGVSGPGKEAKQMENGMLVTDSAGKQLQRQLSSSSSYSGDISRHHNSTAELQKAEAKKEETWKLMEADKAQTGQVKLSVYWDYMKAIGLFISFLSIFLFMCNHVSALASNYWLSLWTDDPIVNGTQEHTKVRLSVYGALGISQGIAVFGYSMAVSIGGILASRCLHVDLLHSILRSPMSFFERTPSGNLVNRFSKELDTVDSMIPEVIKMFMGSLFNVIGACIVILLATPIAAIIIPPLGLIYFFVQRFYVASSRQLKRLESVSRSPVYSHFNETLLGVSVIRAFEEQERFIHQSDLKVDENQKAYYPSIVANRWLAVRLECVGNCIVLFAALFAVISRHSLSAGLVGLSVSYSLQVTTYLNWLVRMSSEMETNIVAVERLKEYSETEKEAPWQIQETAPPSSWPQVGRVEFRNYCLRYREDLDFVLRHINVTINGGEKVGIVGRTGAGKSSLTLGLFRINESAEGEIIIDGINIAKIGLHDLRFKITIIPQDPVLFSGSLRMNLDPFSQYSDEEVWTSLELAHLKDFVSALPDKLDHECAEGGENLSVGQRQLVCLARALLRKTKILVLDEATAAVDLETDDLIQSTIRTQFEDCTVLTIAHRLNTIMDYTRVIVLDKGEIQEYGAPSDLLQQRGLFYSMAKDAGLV

human OAT3 = molecular target: T3, human OAT3 (Homo sapiens, UniProt Q8TCC7); experiment: 14C-NAC uptake in HEK-OAT3 cells
T3 sequence (Q8TCC7 1-542): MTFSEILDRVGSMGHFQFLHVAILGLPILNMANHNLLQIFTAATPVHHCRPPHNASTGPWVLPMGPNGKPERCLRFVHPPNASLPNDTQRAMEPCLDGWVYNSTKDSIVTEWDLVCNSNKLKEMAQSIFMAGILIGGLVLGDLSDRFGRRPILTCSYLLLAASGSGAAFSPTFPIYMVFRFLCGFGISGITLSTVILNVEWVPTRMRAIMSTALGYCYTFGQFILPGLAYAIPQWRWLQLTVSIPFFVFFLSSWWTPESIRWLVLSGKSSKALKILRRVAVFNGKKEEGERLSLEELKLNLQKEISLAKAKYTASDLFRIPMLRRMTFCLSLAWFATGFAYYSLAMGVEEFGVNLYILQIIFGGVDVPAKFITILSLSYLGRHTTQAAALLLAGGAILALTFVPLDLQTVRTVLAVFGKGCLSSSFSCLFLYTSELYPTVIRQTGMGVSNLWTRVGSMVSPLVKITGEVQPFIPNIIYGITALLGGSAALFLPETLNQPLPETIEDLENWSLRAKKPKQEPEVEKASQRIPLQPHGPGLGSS

[5] = type: in vivo, Sprague-Dawley rats
[6] = NAC plasma pharmacokinetics with or without probenecid, intraperitoneal; type: in vivo, Sprague-Dawley rats; details: juvenile rats
HEK-EV cells = experiment: 14C-NAC uptake in HEK-empty vector control cells; type: in vitro ADME, human; details: 200 μM probenecid, 25 min, n = 3
[7] = in vitro uptake and inhibition experiments
[8] = OAT3-overexpressing cells, 25 μM NAC

Structure (SMILES): CC(=O)N[C@@H](CS)C(N)=O
- detection in the brain ([1]; IP and oral administration, ref Offen et al., 2004): able to detect

Structure (SMILES): C[C@]12CC[C@@H]3c4ccc(O)cc4CC[C@H]3[C@@H]1CC[C@@H]2O[C@@H]1O[C@H](C(=O)O)[C@@H](O)[C@H](O)[C@H]1O [E217βG, estradiol-17β-D- glucuronide]
- ATP-dependent uptake of positive control substrate (Human MRP4; MRP4 vesicles, 0.25–100 μM, 0.5 minutes): saturable uptake

- saturation of concentration-dependent NAC uptake (human OAT1; HEK-OAT1, 25 min, up to 10 mM NAC): did not reach saturation
- NAC uptake rate (human OAT1; OAT1-overexpressing cells, 25 μM NAC): 4.2 ± 0.1 pmol/mg/min
- time up to which NAC uptake is linear (human OAT1; OAT1-overexpressing cells, 25 μM NAC, latest time point measured): ≥ 42.5 min
- substrate status for OAT1 (human OAT1; [7]): substrate
- substrate status for MRP4 (Human MRP4; membrane vesicles): not a substrate
- substrate status for MRP1 (Human MRP1; membrane vesicles): not a substrate
- saturation of concentration-dependent NAC uptake (human OAT3; HEK-OAT3, 10 min, up to 10 mM NAC): did not reach saturation
- NAC uptake rate (human OAT3; [8]): 37.7 ± 1.9 pmol/mg/min
- time up to which NAC uptake is linear (human OAT3; [8]): at least 15 minutes
- substrate status for OAT3 (human OAT3; [7]): substrate
- NAC brain levels at late time points ([5]; NAC and probenecid group, up to last sampling time point (8 h)): remained measurable
- apparent plasma clearance (CL/F) ([6]; NAC 163 mg/kg ip alone): 18.55 ± 0.483 mL/min/kg
- apparent plasma clearance (CL/F) ([6]; NAC 163 mg/kg ip in combination with probenecid 150 mg/kg ip): 11.2 ± 0.137 mL/min/kg
Structure (SMILES): CC(=O)N[C@@H](CS)C(=O)O [NAC, N-acetylcysteine]
- crossing of the BBB [2]: can cross the BBB
- levels in the brain ([1]; IP administration, ref Erickson et al., 2012): low levels of NAC were measurable
- renally eliminated [3]: approximately 30%
- log D [4]: −5.4
- ATP-dependent, transporter-mediated uptake of NAC vs AMP (negative control) (Human MRP4; MRP4 vesicles, 25 μM NAC): No uptake; also recorded: not statistically different
- ATP-dependent, transporter-mediated uptake of NAC vs AMP (negative control) (Human MRP1; MRP1 vesicles, 25 μM NAC): No uptake; also recorded: not statistically different
- NAC brain levels at late time points ([5]; NAC only group, 6 h and 8 h time points): below the limit of quantificaiton; also recorded: below limit of quantification

- decrease of NAC uptake by probenecid (human OAT3; OAT3, 200 μM probenecid pre-incubation 5 min, 10 min uptake, n = 3): 93.9%
Structure (SMILES): CCCN(CCC)S(=O)(=O)c1ccc(C(=O)O)cc1 [probenecid]
- effect of probenecid on NAC uptake by control cells (HEK-EV cells): no difference

From paper PMC5572076 (Xenobiotica; the fate of foreign compounds in biological …, 2016)
